Reference: ChEMBL document CHEMBL5528046, “Discovery of Novel PROTAC Degraders of p300/CBP as Potential Therapeutics for Hepatocellular Carcinoma” (J Med Chem, 2024)
The source made the active and inactive calls. The calls are words filed in the database; no cut-off is given here.

Assays:
[1] = biological target: T1, Protein cereblon/Histone acetyltransferase p300 (Homo sapiens, UniProt Q09472+Q96SW2); assay: PROTAC activity at CRBN/p300 in human SK-HEP1 cells assessed as induction of p300 degradation by measuring increase in p21 level at 0.5 uM pretreated with MG-132 at 1 uM followed by compound addition by immunoblotting analysis relative to control; assay type: cell-based
[2] = system: SK-HEP1; assay: Induction of cell cycle arrest at G2/M phase in human SK-HEP1 cells assessed as reduction in CDK6 protein level at 2 uM incubated for 24 hrs by immunoblotting analysis (reference value: 100%); assay type: functional; set-up: scale not given: the % may be the effect or the level left
[3] = biological target: T1, Protein cereblon/Histone acetyltransferase p300; assay: PROTAC activity at CRBN/p300 in human SK-HEP1 cells assessed as induction of p300 protein degradation by measuring residual activity at 1 uM incubated for 0.5 hrs by immunoblotting analysis (reference value: 100%); assay type: cell-based
[4] = biological target: T1, Protein cereblon/Histone acetyltransferase p300; assay: PROTAC activity at CRBN/p300 in human SK-HEP1 cells with siRNA mediated CRBN knockdown assessed as induction of p300 degradation by measuring residual activity at 1 uM by immunoblotting analysis relative to control; assay type: cell-based
[5] = system: SK-HEP1; assay: Induction of cell cycle arrest at G2/M phase in human SK-HEP1 cells assessed as SKP2 protein level at 0.5 uM incubated for 24 hrs by immunoblotting analysis (reference value: 100%); assay type: functional
[6] = system: SK-HEP1; assay: Downregulation of IGFBP3 mRNA expression in human SK-HEP1 cells at 1 uM incubated for 24 hrs by RT-qPCR analysis; assay type: functional, cell-based
[7] = biological target: T1, Protein cereblon/Histone acetyltransferase p300; assay: PROTAC activity at CRBN/p300 in human SK-HEP1 cells assessed as induction of p300 degradation by measuring residual activity at 0.5 uM pretreated with thalidomide at 0.5 uM followed by compound addition by immunoblotting analysis relative to control; assay type: cell-based
[8] = biological target: Protein cereblon/CREB-binding protein (Homo sapiens) (UniProt Q92793+Q96SW2); assay: PROTAC activity at CRBN/CBP in human SK-HEP1 cells assessed as induction of […] protein degradation by measuring residual activity at 2 uM incubated for 24 hrs by immunoblotting analysis (reference value: 100%); assay type: cell-based
[9] = system: SK-HEP1; assay: Antiproliferative activity against human SK-HEP1 cells assessed as inhibition of cell growth incubated for 5 days by CCK-8 assay; assay type: functional, cell-based; details: SK-HEP1, 120 h
[10] = biological target: T1, Protein cereblon/Histone acetyltransferase p300; assay: PROTAC activity at CRBN/p300 in human SK-HEP1 cells assessed as induction of p300 protein degradation by measuring residual activity at 10 nM incubated for 24 hrs by immunoblotting analysis (reference value: 100%); assay type: cell-based
[11] = system: SK-HEP1; assay: Downregulation of ABI3BP mRNA expression in human SK-HEP1 cells at 1 uM incubated for 24 hrs by RT-qPCR analysis; assay type: functional, cell-based
[12] = biological target: T1, Protein cereblon/Histone acetyltransferase p300; assay: PROTAC activity at CRBN/p300 in human SK-HEP1 cells assessed as induction of p300 degradation by measuring residual activity at 0.5 uM pretreated with MLN4924 at 0.5 uM followed by compound addition by immunoblotting analysis relative to control; assay type: cell-based

T1 sequence (Q09472 2-2414 limits assumed): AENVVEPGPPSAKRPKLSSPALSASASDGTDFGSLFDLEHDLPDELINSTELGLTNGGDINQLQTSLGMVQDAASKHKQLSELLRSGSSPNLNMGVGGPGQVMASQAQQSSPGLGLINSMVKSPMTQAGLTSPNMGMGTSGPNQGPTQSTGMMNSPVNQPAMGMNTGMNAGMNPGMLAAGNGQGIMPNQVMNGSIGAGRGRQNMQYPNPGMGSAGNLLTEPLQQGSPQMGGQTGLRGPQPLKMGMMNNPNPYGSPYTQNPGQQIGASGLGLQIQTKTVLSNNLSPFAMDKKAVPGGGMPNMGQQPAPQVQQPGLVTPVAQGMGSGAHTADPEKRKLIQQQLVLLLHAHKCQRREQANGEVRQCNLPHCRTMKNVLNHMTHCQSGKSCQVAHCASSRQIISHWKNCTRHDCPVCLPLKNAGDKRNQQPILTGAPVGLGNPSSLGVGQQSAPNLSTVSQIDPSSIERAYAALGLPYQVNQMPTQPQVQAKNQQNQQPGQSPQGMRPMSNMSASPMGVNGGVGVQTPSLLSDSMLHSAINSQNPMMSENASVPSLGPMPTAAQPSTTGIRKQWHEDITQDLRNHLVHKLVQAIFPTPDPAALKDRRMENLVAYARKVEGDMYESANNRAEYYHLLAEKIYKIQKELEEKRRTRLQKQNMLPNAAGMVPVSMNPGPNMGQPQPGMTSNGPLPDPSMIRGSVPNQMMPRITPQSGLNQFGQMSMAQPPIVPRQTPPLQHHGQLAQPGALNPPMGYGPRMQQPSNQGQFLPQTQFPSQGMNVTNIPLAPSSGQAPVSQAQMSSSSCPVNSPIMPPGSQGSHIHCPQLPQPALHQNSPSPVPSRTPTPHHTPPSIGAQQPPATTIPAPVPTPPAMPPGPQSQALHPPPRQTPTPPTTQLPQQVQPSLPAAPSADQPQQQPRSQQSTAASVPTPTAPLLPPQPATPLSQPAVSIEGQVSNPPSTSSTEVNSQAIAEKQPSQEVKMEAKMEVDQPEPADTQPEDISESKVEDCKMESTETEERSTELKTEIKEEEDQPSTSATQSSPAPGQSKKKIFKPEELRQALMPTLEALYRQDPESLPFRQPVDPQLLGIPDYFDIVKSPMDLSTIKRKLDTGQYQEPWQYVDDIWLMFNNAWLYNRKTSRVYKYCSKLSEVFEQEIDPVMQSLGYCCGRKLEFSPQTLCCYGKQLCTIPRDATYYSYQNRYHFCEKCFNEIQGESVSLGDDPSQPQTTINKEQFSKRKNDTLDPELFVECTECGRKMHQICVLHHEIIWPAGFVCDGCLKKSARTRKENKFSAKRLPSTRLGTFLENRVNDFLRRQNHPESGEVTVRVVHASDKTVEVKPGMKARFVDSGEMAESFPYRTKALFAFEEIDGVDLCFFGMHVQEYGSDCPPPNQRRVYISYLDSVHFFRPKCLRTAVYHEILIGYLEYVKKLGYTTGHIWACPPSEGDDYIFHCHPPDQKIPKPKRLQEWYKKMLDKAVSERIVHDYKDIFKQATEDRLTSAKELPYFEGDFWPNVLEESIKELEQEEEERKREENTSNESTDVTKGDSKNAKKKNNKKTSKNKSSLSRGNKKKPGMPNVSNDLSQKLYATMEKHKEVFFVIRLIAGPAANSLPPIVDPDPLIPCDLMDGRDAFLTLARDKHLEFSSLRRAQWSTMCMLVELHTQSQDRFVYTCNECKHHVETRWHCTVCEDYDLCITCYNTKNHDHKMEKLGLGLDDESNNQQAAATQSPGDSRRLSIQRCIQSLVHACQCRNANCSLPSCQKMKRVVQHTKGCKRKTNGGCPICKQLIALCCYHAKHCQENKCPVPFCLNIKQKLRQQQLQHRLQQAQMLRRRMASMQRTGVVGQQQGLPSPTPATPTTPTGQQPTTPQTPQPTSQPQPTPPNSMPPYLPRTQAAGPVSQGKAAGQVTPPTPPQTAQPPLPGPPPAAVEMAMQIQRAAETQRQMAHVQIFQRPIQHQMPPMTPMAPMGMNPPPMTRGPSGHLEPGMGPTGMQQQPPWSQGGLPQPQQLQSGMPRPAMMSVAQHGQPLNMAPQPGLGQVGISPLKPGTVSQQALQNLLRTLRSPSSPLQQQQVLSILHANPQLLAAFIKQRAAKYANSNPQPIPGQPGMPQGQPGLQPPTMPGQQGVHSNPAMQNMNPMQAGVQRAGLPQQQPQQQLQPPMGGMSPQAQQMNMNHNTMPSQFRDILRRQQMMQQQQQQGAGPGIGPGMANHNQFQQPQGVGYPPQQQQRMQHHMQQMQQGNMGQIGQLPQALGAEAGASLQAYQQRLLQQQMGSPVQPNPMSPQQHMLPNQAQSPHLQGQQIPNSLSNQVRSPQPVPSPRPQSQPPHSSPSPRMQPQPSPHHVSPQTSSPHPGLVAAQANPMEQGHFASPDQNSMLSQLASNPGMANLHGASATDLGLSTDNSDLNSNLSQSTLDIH
T1 sequence (Q96SW2 whole entry partner): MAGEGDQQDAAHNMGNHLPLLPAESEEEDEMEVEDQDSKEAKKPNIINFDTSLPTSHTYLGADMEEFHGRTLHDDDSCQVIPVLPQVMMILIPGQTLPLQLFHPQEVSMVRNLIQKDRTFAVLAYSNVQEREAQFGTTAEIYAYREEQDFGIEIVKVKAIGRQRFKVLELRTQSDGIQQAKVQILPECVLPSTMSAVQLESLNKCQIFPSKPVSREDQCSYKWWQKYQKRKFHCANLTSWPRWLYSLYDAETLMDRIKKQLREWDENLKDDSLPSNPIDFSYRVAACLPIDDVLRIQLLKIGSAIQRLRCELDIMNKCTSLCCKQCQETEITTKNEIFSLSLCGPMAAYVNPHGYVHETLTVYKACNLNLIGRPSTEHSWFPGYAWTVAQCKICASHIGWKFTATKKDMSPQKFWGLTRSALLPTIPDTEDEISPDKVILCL

Activity [1]: 537%
Activity [3]: 100%
Activity [4]: 78%
Activity [7]: 99%
Activity [8]: 89%
IC50 [9]: 733 nM
Activity [10]: 70%
Activity [12]: 101%
Compound: Cc1noc(C)c1-c1ccc2c(c1)nc([C@@H]1CCCC(=O)N1c1ccc(F)c(F)c1)n2C1CCN(C2CN(c3ccc4c(c3)C(=O)N(C3CCC(=O)NC3=O)C4=O)C2)CC1 (some centres not stated)
Activity [2]: 87%
Activity [5]: 117%
Activity [6]: Active
Activity [11]: Active
